Source: BindingDB's records for doi:10.1021/jm960541s (Upjohn, 1996)

What follows are compounds tested against T1, Dimer of Gag-Pol polyprotein [489-587] (Human immunodeficiency virus 1, UniProt P04585) (assay: Protease Inhibition Assay). Settings: pH 5; 22 °C.
T1 construct: 489-587
Excerpt: (§1) HIV-1 protease was purified and refolded from E. coli inclusion bodies. The substrate used spans the p17-p24 processing site (R-V-S-Q-N-Y-P-I-V-Q-N-K) and was derivatized with biotin and fluorescein isothiocyanate (FITC) at the amino and carboxy termini. In the presence of HIV-l protease, the substrate is rapidly cleaved into two parts. The biotinylated amino terminal fragment binds to the avidin beads while the FITC-containing carboxy1 terminal fragment is removed through the membrane. […] The bound fluorescence is obtained by processing on an IDEXX Screen Machine. Determination of Ki values with this assay requires analysis under conditions in which substrate concentration resides substantially below Km and the inhibitor concentrations greatly exceeds the Ki value and the enzyme concentration.

In order of rising Ki:
1. CCC[C@@]1(CCc2ccccc2)CC(=O)C([C@H](CC)c2cccc(NS(=O)(=O)c3ccc(C#N)cn3)c2)C(=O)O1 (stereo partly drawn) [5-cyano-N-{3-[(1R)-1-[(6R)-4-hydroxy-2-oxo-6-(2-phenylethyl)-6-propyl-5,6-dihydro-2H-pyran-3-yl]propyl]phenyl}pyridine-2-sulfonamide]  0.007 nM
2. CCC[C@@]1(CCc2ccccc2)CC(=O)C([C@H](CC)c2cccc(NS(=O)(=O)c3ccc(C(F)(F)F)cn3)c2)C(=O)O1 (stereo partly drawn) [N-{3-[(1R)-1-[(6R)-4-hydroxy-2-oxo-6-(2-phenylethyl)-6-propyl-5,6-dihydro-2H-pyran-3-yl]propyl]phenyl}-5-(trifluoromethyl)pyridine-2-sulfonamide]  0.008 nM
3. CCC[C@]1(CCc2ccccc2)CC(=O)C([C@H](CC)c2cccc(NS(=O)(=O)c3ccc(C(F)(F)F)cn3)c2)C(=O)O1 (stereo partly drawn) [N-{3-[(1R)-1-[(6S)-4-hydroxy-2-oxo-6-(2-phenylethyl)-6-propyl-5,6-dihydro-2H-pyran-3-yl]propyl]phenyl}-5-(trifluoromethyl)pyridine-2-sulfonamide]  0.018 nM
4. CCC[C@@]1(CCc2ccccc2)CC(=O)C([C@@H](CC)c2cccc(NS(=O)(=O)c3ccc(C(F)(F)F)cn3)c2)C(=O)O1 (stereo partly drawn) [N-{3-[(1S)-1-[(6R)-4-hydroxy-2-oxo-6-(2-phenylethyl)-6-propyl-5,6-dihydro-2H-pyran-3-yl]propyl]phenyl}-5-(trifluoromethyl)pyridine-2-sulfonamide]  0.032 nM
5. CCC[C@]1(CCc2ccccc2)CC(=O)C([C@H](CC)c2cccc(NS(=O)(=O)c3ccc(C#N)cn3)c2)C(=O)O1 (stereo partly drawn) [5-cyano-N-{3-[(1R)-1-[(6S)-4-hydroxy-2-oxo-6-(2-phenylethyl)-6-propyl-5,6-dihydro-2H-pyran-3-yl]propyl]phenyl}pyridine-2-sulfonamide]  0.04 nM
6. CCC[C@@]1(CCc2ccccc2)CC(=O)C([C@H](CC)c2cccc(NS(=O)(=O)c3cn(C)cn3)c2)C(=O)O1 (stereo partly drawn) [N-{3-[(1R)-1-[(6R)-4-hydroxy-2-oxo-6-(2-phenylethyl)-6-propyl-5,6-dihydro-2H-pyran-3-yl]propyl]phenyl}-1-methyl-1H-imidazole-4-sulfonamide]  0.06 nM
7. CCC[C@@]1(CCc2ccccc2)CC(=O)C([C@@H](CC)c2cccc(NS(=O)(=O)c3ccc(C#N)cn3)c2)C(=O)O1 (stereo partly drawn) [5-cyano-N-{3-[(1S)-1-[(6R)-4-hydroxy-2-oxo-6-(2-phenylethyl)-6-propyl-5,6-dihydro-2H-pyran-3-yl]propyl]phenyl}pyridine-2-sulfonamide]  0.1 nM
8. CCC[C@]1(CCc2ccccc2)CC(=O)C([C@@H](CC)c2cccc(NS(=O)(=O)c3ccc(C#N)cn3)c2)C(=O)O1 (stereo partly drawn) [5-cyano-N-{3-[(1S)-1-[(6S)-4-hydroxy-2-oxo-6-(2-phenylethyl)-6-propyl-5,6-dihydro-2H-pyran-3-yl]propyl]phenyl}pyridine-2-sulfonamide]  0.12 nM
9. CCC[C@]1(CCc2ccccc2)CC(=O)C([C@H](CC)c2cccc(NS(=O)(=O)c3cn(C)cn3)c2)C(=O)O1 (stereo partly drawn) [N-{3-[(1R)-1-[(6S)-4-hydroxy-2-oxo-6-(2-phenylethyl)-6-propyl-5,6-dihydro-2H-pyran-3-yl]propyl]phenyl}-1-methyl-1H-imidazole-4-sulfonamide]  0.12 nM
10. CCC[C@]1(CCc2ccccc2)CC(=O)C([C@@H](CC)c2cccc(NS(=O)(=O)c3ccc(C(F)(F)F)cn3)c2)C(=O)O1 (stereo partly drawn) [N-{3-[(1S)-1-[(6S)-4-hydroxy-2-oxo-6-(2-phenylethyl)-6-propyl-5,6-dihydro-2H-pyran-3-yl]propyl]phenyl}-5-(trifluoromethyl)pyridine-2-sulfonamide]  0.22 nM
11. CCC[C@@]1(CCc2ccccc2)CC(=O)C([C@@H](CC)c2cccc(NS(=O)(=O)c3cn(C)cn3)c2)C(=O)O1 (stereo partly drawn) [N-{3-[(1S)-1-[(6R)-4-hydroxy-2-oxo-6-(2-phenylethyl)-6-propyl-5,6-dihydro-2H-pyran-3-yl]propyl]phenyl}-1-methyl-1H-imidazole-4-sulfonamide]  0.3 nM
12. CCC[C@]1(CCc2ccccc2)CC(=O)C([C@@H](CC)c2cccc(NS(=O)(=O)c3cn(C)cn3)c2)C(=O)O1 (stereo partly drawn) [N-{3-[(1S)-1-[(6S)-4-hydroxy-2-oxo-6-(2-phenylethyl)-6-propyl-5,6-dihydro-2H-pyran-3-yl]propyl]phenyl}-1-methyl-1H-imidazole-4-sulfonamide]  1 nM

Each compound was assayed against T2, Dimer of Gag-Pol polyprotein [489-587] (Human immunodeficiency virus 1, UniProt P12497) (assay: Protease Inhibition Assay). Settings: pH 5; 22 °C.
T2 construct: 489-587
Excerpt: as §1

In order of falling Ki:
1. CCCC1(CCc2ccccc2)CC(=O)C(C(CC)c2cccc(NS(=O)(=O)c3ccccc3)c2)C(=O)O1 (configuration not stated) [N-(3-{1-[4-hydroxy-2-oxo-6-(2-phenylethyl)-6-propyl-5,6-dihydro-2H-pyran-3-yl]propyl}phenyl)benzenesulfonamide]  17 nM
2. CCCC1(CCc2ccccc2)CC(=O)C(C(CC)c2cccc(NS(=O)(=O)c3ccc(C#N)cc3)c2)C(=O)O1 (configuration not stated) [4-cyano-N-(3-{1-[4-hydroxy-2-oxo-6-(2-phenylethyl)-6-propyl-5,6-dihydro-2H-pyran-3-yl]propyl}phenyl)benzene-1-sulfonamide]  8 nM
3. CCCC1(CCc2ccccc2)CC(=O)C(C(CC)c2cccc(NS(=O)(=O)c3ccc(F)cc3)c2)C(=O)O1 (configuration not stated) [4-fluoro-N-(3-{1-[4-hydroxy-2-oxo-6-(2-phenylethyl)-6-propyl-5,6-dihydro-2H-pyran-3-yl]propyl}phenyl)benzene-1-sulfonamide]  6 nM
4. CCCC1(CCc2ccccc2)CC(=O)C(C(CC)c2cccc(NS(=O)(=O)c3cccc4cccnc34)c2)C(=O)O1 (configuration not stated) [N-(3-{1-[4-hydroxy-2-oxo-6-(2-phenylethyl)-6-propyl-5,6-dihydro-2H-pyran-3-yl]propyl}phenyl)quinoline-8-sulfonamide]  3 nM
5. CCCC1(CCc2ccccc2)CC(=O)C(C(CC)c2cccc(NS(=O)(=O)c3cn(C)cn3)c2)C(=O)O1 (configuration not stated) [N-(3-{1-[4-hydroxy-2-oxo-6-(2-phenylethyl)-6-propyl-5,6-dihydro-2H-pyran-3-yl]propyl}phenyl)-1-methyl-1H-imidazole-4-sulfonamide]  1 nM
